Experimental data taken from the METLIN SMRT retention time set (Domingo-Almenara et al. 2019).

Assay: gradient 5% acetonitrile 3 min, to 50% in 2 min, to 85% in 15 min, held 3 min, 100 µL/min
Settings: column: Zorbax Extend-C18 2.1 x 50 mm; eluents: water / acetonitrile, 0.1% formic acid
In short: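 Each retention time is based on an adduct peak selected computationally and verified by manual inspection. Measurements used HPLC–quadrupole time-of-flight mass spectrometry in positive and negative ionization mode on mixtures of ~100 pure standards. Chromatography ran on a Zorbax Extend-C18 column (2.1 × 50 mm, 1.8 μm) at 100 μL/min with water and acetonitrile, each containing 0.1% formic acid, and dead and dwell volumes of 40 μL and 900 μL.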

With `O=C(C1CCCN(c2nccnc2Sc2ccccc2)C1)N1CCOCC1` (configuration not stated) the RP-LC retention time was 850 s.

Work on `CC(=O)N1CCc2cc(-c3ccc(C(=O)NCc4ccc5c(c4)OCO5)cc3)ccc21` yielded an RP-LC retention time of 824 s.

For `O=C1NCCCCCN(C(=O)c2ccco2)[C@@H]2C[C@@H](C(=O)N3CCc4ccccc4C3)C[C@H]12`, the RP-LC retention time was 752 s.

Molecule `O=C(Cc1nnc(-c2ccc3ncccc3c2)o1)NCCc1ccc(Cl)cc1` has an RP-LC retention time of 733 s.

With `O=C(NCCn1c(=O)n(Cc2ccccc2)c2cccnc21)c1ccoc1` the RP-LC retention time was 725 s.

In the case of `COC(=O)c1ccc(-c2csc(NC(=O)C3CCCC3)n2)cc1`, the RP-LC retention time is reported as 942 s.

With `CNC(=O)C1CCN(C(=O)Nc2ccc(NC(=O)Nc3ccc(C)c(C)c3)cc2)CC1` the RP-LC retention time was 700 s.

`Cc1cc(C(=O)N(CCn2nc(C)cc2C)c2nc3c(C(C)C)cccc3s2)on1` showed an RP-LC retention time of 1200 s.

Work on `Cc1nn(Cc2ccc(C(=O)NCC3CC3)cc2)c(C)c1S(=O)(=O)N1CCC(C)CC1` yielded an RP-LC retention time of 888 s.

Molecule `Cc1noc(C)c1S(=O)(=O)N1CCC(c2noc(-c3cccnc3)n2)C1` (configuration not stated) has an RP-LC retention time of 796 s.

For `COc1ccc2c(c1)C1(CCN(S(=O)(=O)c3cccc(F)c3)C1)C(=O)N2` (configuration not stated), the RP-LC retention time was 835 s.

In the case of `Cc1ccc2[nH]cc(CCN3CC(C(=O)Nc4ccc(C)c(C)c4)CC3=O)c2c1` (configuration not stated), the RP-LC retention time is reported as 910 s.

`CCc1nnc2nc(N3CCN(C(=O)COc4ccc(Cl)cc4)CC3)cc(C)n12` showed an RP-LC retention time of 648 s.

`O=C(NCCN1CCCC1)c1ccc(-c2noc(-c3ccccc3)n2)s1` gave an RP-LC retention time of 673 s.

`O=C(Cn1cnc2nc(N3CCC(C(=O)NC4CC4)CC3)sc2c1=O)NCc1cccs1` showed an RP-LC retention time of 618 s.

Molecule `CCN1C(=O)NC(c2ccccc2C(F)(F)F)C2=C1CN(CCC(=O)NCCOC)C2=O` (configuration not stated) has an RP-LC retention time of 928 s.

In the case of `CCOC(=O)c1c(N)n(CCCOC)c2nc3ccccc3nc12`, the RP-LC retention time is reported as 645 s.

In the case of `Cc1c(-c2nnc(C(=O)NCCCN3CCCC3)o2)oc2c(C)cccc12`, the RP-LC retention time is reported as 688 s.

Molecule `CC(C)CCNC(=O)C1(C)Cn2nc(C(=O)NCc3ccc(Cl)cc3)cc2C(=O)N1C` (configuration not stated) has an RP-LC retention time of 822 s.

With `Cc1nnc(SCC(=O)Nc2nc(-c3ccccc3)ns2)s1` the RP-LC retention time was 852 s.

For `COCCN1CC(CO)C2(CCN(Cc3cccc(Cl)c3)CC2)C1` (configuration not stated), the RP-LC retention time was 531 s.

`Cc1noc(-c2cc(=O)n(CC(=O)NCc3ccccc3Cl)c3ccccc23)n1` showed an RP-LC retention time of 866 s.

With `COCc1cc(=O)n(CC(=O)Nc2ccccc2C)c(N)n1` the RP-LC retention time was 603 s.

`Cc1nn(C)c(C)c1CCC(=O)NCCn1c(C)cnc1C1CCC1` gave an RP-LC retention time of 547 s.

For `CC1=C(c2ccc(C)cc2)S(=O)(=O)N=C1N1CCCN(C(=O)c2ccc(C#N)cc2)CC1`, the RP-LC retention time was 835 s.

For `O=C(c1ccc(-c2cncnc2)nc1)N1CCN(c2ccc(Cl)cc2)CC1`, the RP-LC retention time was 796 s.

Molecule `CCN1C(=O)COc2ccc(-c3noc(/C=C/c4ccc(OC)cc4)n3)cc21` has an RP-LC retention time of 1130 s.

Work on `O=C(Nc1ccc(F)cc1)c1nnc(C(=O)N2CCC(C(=O)NCc3ccccn3)CC2)s1` yielded an RP-LC retention time of 909 s.

For `Cc1ccc(-c2nc(CN3CCCC3=O)no2)cc1`, the RP-LC retention time was 782 s.

Work on `CCCOc1ccc(-c2nc(-c3ccc(N)cc3)cs2)cc1` yielded an RP-LC retention time of 1120 s.

`O=C(CN1CC=C(c2cnn(-c3ccc(F)cc3)c2)CC1)N1CCCCC1` showed an RP-LC retention time of 661 s.

In the case of `Cc1cc(S(=O)(=O)N2CCN(c3nc4ccncc4n(C)c3=O)CC2)ccc1F`, the RP-LC retention time is reported as 682 s.

`Cc1ccc(Nc2c(-c3ccc(C)cc3)nc3cccc(C)n23)cc1` gave an RP-LC retention time of 782 s.

Molecule `Cn1nc2n(c1=O)CCN(C(=O)C1(c3ccccc3)CCCC1)CC2` has an RP-LC retention time of 736 s.

Molecule `CN(C)c1cccc(C(=O)N2CCN(S(=O)(=O)C3CC3)CC2)c1` has an RP-LC retention time of 630 s.

`CCc1cc(C2CCCN2Cc2cc(OC)c(O)c(OC)c2)on1` (configuration not stated) showed an RP-LC retention time of 575 s.

Work on `Cc1ccc(CN2C[C@@H]3C(=O)N(CCc4ccccc4)C(=O)[C@@H]3C2)o1` yielded an RP-LC retention time of 719 s.

`CC1=C(c2ccc(F)cc2)S(=O)(=O)N=C1N1CCCN(C(=O)c2cccc(C)c2)CC1` showed an RP-LC retention time of 859 s.

`CN(C)C(=O)c1ccc2c(c1)CCN2C(=O)C1CCC1` showed an RP-LC retention time of 700 s.

For `CN(C)CCCn1cc2c(c1-c1cccc(Br)c1)c(=O)n(C)c(=O)n2C`, the RP-LC retention time was 617 s.

For `O=C(C1CC1)N1CCc2sc(S(=O)(=O)Nc3cccc(F)c3)cc2C1`, the RP-LC retention time was 829 s.

`CCn1c(C)c(CCC(=O)Nc2ccccc2)c(=O)n2nc(-c3ccccc3)nc12` showed an RP-LC retention time of 847 s.

`COc1ccc(C(=O)Nc2ccc3c(c2)Sc2ncccc2C(=O)N3C)cc1OC` showed an RP-LC retention time of 712 s.

For `Cc1ccsc1C(=O)N1CCc2[nH]cnc2C12CCCCC2`, the RP-LC retention time was 606 s.

For `CN1CC2(CCCC2)N(C(=O)COc2ccc(F)cc2)CC1=O`, the RP-LC retention time was 740 s.

`CN(C)C(=O)c1csc(S(=O)(=O)N2CCC(C(=O)N3CCc4ccccc43)CC2)c1` gave an RP-LC retention time of 809 s.

For `CCCCCn1c(=O)c2ccccc2n(Cc2nc(-c3cc(OC)cc(OC)c3)no2)c1=O`, the RP-LC retention time was 1270 s.

In the case of `Cc1nn(-c2ccccc2)c(C)c1S(=O)(=O)N1CCC(C(=O)NC(C)(C)C)CC1`, the RP-LC retention time is reported as 894 s.

`COC(=O)c1ccccc1NC(=O)CN1CCC(c2nc(-c3cccc(F)c3)no2)CC1` showed an RP-LC retention time of 738 s.

`COc1ccc2c(c1)[C@]13CCCC[C@@H]1[C@H](C2)N(C)CC3` showed an RP-LC retention time of 732 s.

In the case of `Cc1cc(NC(=O)C(=O)c2cccn2C)ccc1Br`, the RP-LC retention time is reported as 1120 s.

Work on `COc1ccc(OC)c(NC(=O)Cn2cccc2-c2nc(-c3ccc4c(c3)OCO4)no2)c1` yielded an RP-LC retention time of 1010 s.

`Cc1ccnc(N2CCC(C(=O)NC3CCCCC3)CC2)n1` gave an RP-LC retention time of 669 s.

In the case of `O=C(Cc1cccs1)N1CCN(S(=O)(=O)C2CC2)CC1`, the RP-LC retention time is reported as 666 s.

`COc1ccc(CNC(=O)C2CCN(c3ccc(SCc4ccccc4)nn3)CC2)c(OC)c1` showed an RP-LC retention time of 767 s.

Molecule `CN(C)S(=O)(=O)Nc1cccc(Br)c1` has an RP-LC retention time of 898 s.

Molecule `CCOCCCNS(=O)(=O)c1cc(-c2nc(C)c(C)s2)sc1C` has an RP-LC retention time of 961 s.

In the case of `COc1ccc(OC)c(NC(=O)C2(C)Oc3cccnc3NC2=O)c1` (configuration not stated), the RP-LC retention time is reported as 746 s.

Work on `COc1ccc(-c2ccnc3nc(-c4cccs4)nn23)c(F)c1` yielded an RP-LC retention time of 905 s.

In the case of `COc1ccc2[nH]c(=O)c(CCC(=O)NCc3nc4ccccc4n3C)cc2c1`, the RP-LC retention time is reported as 577 s.

Molecule `Cc1cccc(-c2nc(Cc3noc(COc4ccccc4)n3)c(C)o2)c1` has an RP-LC retention time of 1170 s.

`COc1ccc(CNC(=O)CCc2conc2-c2ccc(F)cc2)cc1` gave an RP-LC retention time of 860 s.

`COc1ccc(-c2noc(Cc3nnc(-c4cc(C)cc(C)c4)o3)n2)cc1` gave an RP-LC retention time of 1110 s.

With `Cc1cccc(CN2N=C(C(=O)N3CCCC3)S(=O)(=O)c3ccccc32)c1` the RP-LC retention time was 892 s.

In the case of `O=C(C1CCN(S(=O)(=O)c2cc(-c3noc(C4CCC4)n3)cs2)CC1)N1CCc2ccccc21`, the RP-LC retention time is reported as 1150 s.

For `Cc1cccc(CN2C(=O)N(c3cccc(F)c3)c3ncccc3S2(=O)=O)c1`, the RP-LC retention time was 1050 s.

For `CC(C)CN1C(=O)c2ccccc2C(C(=O)NCCCN2CCOCC2)C1c1cccs1` (configuration not stated), the RP-LC retention time was 644 s.
